Experimental data: patent US20070129313A1, “Sulfonylamino-peptidomimetics active on the somatostatin receptor subtypes 4 (sstr4) and 1 (sstr1)” (SIEGFRIED WURSTER, priority 2003, published 2007)

Key:
[1] = molecular target: T1, human somatostatin receptor subtype SSTR4 (Homo sapiens, UniProt P31391); experiment: Competition binding with 125I-LTT-sst-28, CHO cell membranes, SSTR4; conditions: membranes of CHO cells stably transfected with human SSTR4, Ki from IC50 by Cheng-Prusoff
T1 construct: expressed in transfected cells; host or cells: Chinese hamster ovary (CHO) cells, membranes
Description: (§1) The affinity of the compounds of the invention for the five human somatostatin receptor subtypes (SSTR1, SSTR2, SSTR3, SSTR4, and SSTR5) was determined in competition binding assays with (^125I-Tyr)-[Leu^8, DTrp^22]-somatostatin-28 (^125I-LTT-sst-28). The biological material for these experiments consisted of membranes from Chinese hamster ovary (CHO) cells stably transfected with one of the five human somatostatin receptor subtypes. Membranes (3-20 μg of total protein per sample) and trace amount of ^125I-LTT-sst-28 were incubated in 10 mM Hepes, 1 mM EDTA, 5 mM MgCl2, 5 mg/ml of BSA and 30 μg/ml bacitracin, pH 7.6 with six concentrations of the compounds. Each concentration was run in duplicate. Nonspecific binding was defined by 1 μM somatostatin-14 (sst-14) and corresponded to 5-25% of total binding. After 60 min at room temperature, incubations were terminated by rapid vacuum filtration through GF/B glass fiber filter mats (presoaked at 4° C. in 200 ml of 10 mM Hepes, 1 mM EDTA, 5 mM MgCl2, pH 7.6) and three 5 ml washes with ice-cold wash buffer (20 mM TRIS, 1 mM EDTA, 5 mM MgCl2, pH 7.4). The filters were then dried, impregnated with scintillate and their radioactivity was measured by scintillation counting. The analysis of the experiments was carried out by nonlinear least square curve fitting. Affinity constants (Ki) were calculated from the IC50 values according to the Cheng-Prusoff's equation (Cheng and Prusoff, 1973). Experiments were repeated a minimum of three times.

[2] = molecular target: T2, human somatostatin receptor subtype SSTR2 (Homo sapiens, UniProt P30874); experiment: Competition binding with 125I-LTT-sst-28, CHO cell membranes, SSTR2; conditions: membranes of CHO cells stably transfected with human SSTR2, Ki from IC50 by Cheng-Prusoff
T2 construct: expressed in transfected cells; host or cells: Chinese hamster ovary (CHO) cells, membranes
Description: as §1

[3] = molecular target: T3, human somatostatin receptor subtype SSTR5 (Homo sapiens, UniProt P35346); experiment: Competition binding with 125I-LTT-sst-28, CHO cell membranes, SSTR5; conditions: membranes of CHO cells stably transfected with human SSTR5, Ki from IC50 by Cheng-Prusoff
T3 construct: expressed in transfected cells; host or cells: Chinese hamster ovary (CHO) cells, membranes
Description: as §1

[4] = molecular target: T4, human somatostatin receptor subtype SSTR1 (Homo sapiens, UniProt P30872); experiment: Competition binding with 125I-LTT-sst-28, CHO cell membranes, SSTR1; conditions: membranes of CHO cells stably transfected with human SSTR1, Ki from IC50 by Cheng-Prusoff
T4 construct: expressed in transfected cells; host or cells: Chinese hamster ovary (CHO) cells, membranes
Description: as §1

[5] = molecular target: T5, human somatostatin receptor subtype SSTR3 (Homo sapiens, UniProt P32745); experiment: Competition binding with 125I-LTT-sst-28, CHO cell membranes, SSTR3; conditions: membranes of CHO cells stably transfected with human SSTR3, Ki from IC50 by Cheng-Prusoff
T5 construct: expressed in transfected cells; host or cells: Chinese hamster ovary (CHO) cells, membranes
Description: as §1

NPFF receptor = conditions: rat tissue; cited from earlier work

T3 sequence (P35346 whole entry): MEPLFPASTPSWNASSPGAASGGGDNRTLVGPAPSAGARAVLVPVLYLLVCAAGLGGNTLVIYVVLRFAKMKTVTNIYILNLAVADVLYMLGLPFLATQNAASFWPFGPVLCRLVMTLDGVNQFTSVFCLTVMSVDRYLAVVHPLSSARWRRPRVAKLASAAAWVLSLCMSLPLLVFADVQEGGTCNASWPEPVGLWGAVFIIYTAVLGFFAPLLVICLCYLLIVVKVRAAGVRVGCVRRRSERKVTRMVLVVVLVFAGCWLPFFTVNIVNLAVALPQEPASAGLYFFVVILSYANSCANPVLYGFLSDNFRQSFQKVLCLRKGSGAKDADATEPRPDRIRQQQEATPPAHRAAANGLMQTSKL
T2 sequence (P30874 whole entry): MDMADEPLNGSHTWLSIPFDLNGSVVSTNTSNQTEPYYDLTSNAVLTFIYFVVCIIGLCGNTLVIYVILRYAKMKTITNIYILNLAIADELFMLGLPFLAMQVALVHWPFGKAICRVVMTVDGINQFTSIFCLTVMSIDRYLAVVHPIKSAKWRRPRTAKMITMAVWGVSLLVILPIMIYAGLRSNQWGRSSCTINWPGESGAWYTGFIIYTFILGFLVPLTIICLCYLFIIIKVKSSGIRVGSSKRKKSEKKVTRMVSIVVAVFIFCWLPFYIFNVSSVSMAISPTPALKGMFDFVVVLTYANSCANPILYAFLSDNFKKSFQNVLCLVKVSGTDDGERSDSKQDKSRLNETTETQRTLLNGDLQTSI
T5 sequence (P32745 whole entry): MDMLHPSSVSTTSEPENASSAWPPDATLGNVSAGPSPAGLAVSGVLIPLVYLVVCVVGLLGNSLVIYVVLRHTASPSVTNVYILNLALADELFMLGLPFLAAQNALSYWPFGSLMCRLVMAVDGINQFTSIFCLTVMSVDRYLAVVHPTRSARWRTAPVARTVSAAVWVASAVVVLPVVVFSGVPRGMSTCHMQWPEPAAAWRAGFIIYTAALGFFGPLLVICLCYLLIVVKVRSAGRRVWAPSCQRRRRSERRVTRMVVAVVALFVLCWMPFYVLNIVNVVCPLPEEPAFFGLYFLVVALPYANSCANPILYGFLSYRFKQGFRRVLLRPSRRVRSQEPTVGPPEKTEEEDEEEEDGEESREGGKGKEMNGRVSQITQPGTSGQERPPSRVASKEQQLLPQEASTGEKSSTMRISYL
T1 sequence (P31391 whole entry): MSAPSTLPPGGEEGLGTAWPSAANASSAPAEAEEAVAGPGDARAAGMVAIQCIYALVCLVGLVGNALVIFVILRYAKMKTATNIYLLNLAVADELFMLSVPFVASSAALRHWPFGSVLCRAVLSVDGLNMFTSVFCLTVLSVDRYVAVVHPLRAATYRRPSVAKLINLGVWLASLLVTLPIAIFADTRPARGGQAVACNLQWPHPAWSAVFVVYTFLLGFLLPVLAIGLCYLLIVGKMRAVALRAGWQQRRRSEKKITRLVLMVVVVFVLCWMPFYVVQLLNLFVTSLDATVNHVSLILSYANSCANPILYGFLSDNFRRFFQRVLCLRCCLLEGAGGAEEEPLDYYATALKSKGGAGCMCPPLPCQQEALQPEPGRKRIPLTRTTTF
T4 sequence (P30872 whole entry): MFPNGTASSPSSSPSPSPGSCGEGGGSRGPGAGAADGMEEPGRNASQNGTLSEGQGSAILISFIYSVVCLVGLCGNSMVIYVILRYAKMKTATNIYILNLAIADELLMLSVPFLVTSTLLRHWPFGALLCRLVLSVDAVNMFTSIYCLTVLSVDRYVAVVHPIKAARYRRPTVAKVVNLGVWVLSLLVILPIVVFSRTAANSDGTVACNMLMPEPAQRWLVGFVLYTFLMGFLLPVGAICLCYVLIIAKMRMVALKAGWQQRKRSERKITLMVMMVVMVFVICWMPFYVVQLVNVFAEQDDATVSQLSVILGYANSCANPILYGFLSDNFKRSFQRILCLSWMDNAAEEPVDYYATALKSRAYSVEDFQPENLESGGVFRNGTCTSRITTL

Row | Compound | Ki [1] [nM] | Ki [2] [nM] | Ki [3] [nM] | Ki [4] [nM] | Ki [5] [nM] | affinity for NPFF receptor (NPFF receptor) [nM]
1 | Cc1ccc(S(=O)(=O)N[C@@H](CCCN)C(=O)N[C@@H](Cc2ccccc2)C(N)=O)c2ccccc12 [compound 3, 5-amino-N-((S)-1-carbamoyl-2-phenylethyl)-(S)-2-(N′-(4-methyl-1-naphthalenesulfonyl)amino)pentanamide] | 6.5 ± 1.7 | > 1000 | > 1000 | 260 ± 20 | > 1000 | 
2 | Cc1ccc(S(=O)(=O)N[C@@H](CCN)C(=O)N[C@@H](Cc2ccccc2)C(N)=O)c2ccccc12 [compound 5, 4-amino-N-((S)-1-carbamoyl-2-phenylethyl)-(S)-2-(N′-(4-methyl-1-naphthalenesulfonyl)amino)butanamide] |  | > 1000 | 540 ± 80 | 500 ± 150 |  | 
3 | Cc1ccc(S(=O)(=O)N[C@@H](CCN)C(=O)N[C@H](C(N)=O)C(c2ccccc2)c2ccccc2)c2ccccc12 [compound 7, 4-amino-N-((S)-1-carbamoyl-2,2-diphenylethyl)-(S)-2-(N′-(4-methyl-1-naphthalenesulfonyl)amino)butanamide] | 5.3 ± 2.1 | > 10000 | > 10000 | > 1000 | > 5000 | 
4 | Cc1ccc(S(=O)(=O)N[C@@H](CCCNC(=N)N)C(=O)N[C@H](C(N)=O)C(c2ccccc2)c2ccccc2)c2ccccc12 [compound 2, N-((S)-1-carbamoyl-2,2-diphenylethyl)-5-guanidino-(S)-2-(N′-(4-methyl-1-naphthalenesulfonyl)amino)pentanamide] | 1.5 ± 0.7 | > 10000 | > 5000 | 34 ± 14 | > 5000 | 
5 | CN(C)c1cccc2c(S(=O)(=O)N[C@@H](CCCN=C(N)N)C(=O)N[C@@H](Cc3ccccc3)C(N)=O)cccc12 [Dansyl-RFamide] |  |  |  |  |  | 73
6 | Cc1ccc(S(=O)(=O)N[C@@H](CCCNC(=N)N)C(=O)N[C@@H](Cc2ccccc2)C(N)=O)c2ccccc12 [compound 1, N-((S)-1-carbamoyl-2-phenylethyl)-5-guanidino-(S)-2-(N′-(4-methyl-1-naphthalenesulfonyl)amino)pentanamide] | 3.6 ± 0.7 | > 10000 | > 10000 | 73 ± 19 | > 10000 | 
7 | CCc1ccc(S(=O)(=O)N[C@@H](CCN)C(=O)N[C@@H](Cc2ccccc2)C(N)=O)c2ccccc12 [compound 6, 4-amino-N-((S)-1-carbamoyl-2-phenylethyl)-(S)-2-(N′-(4-ethyl-1-naphthalenesulfonyl)amino)butanamide] | 2.3 ± 0.4 | > 10000 |  | 990 ± 80 |  | 
